For ten compounds, MIC results are on record in ChEMBL document CHEMBL3792367, “Synthesis and molecular modeling of antimicrobial active fluoroquinolone-pyrazine conjugates with amino acid linkers” (2016).

Values after ≈ are worked out from the molar mass of the structure shown.

One assay concerns Pseudomonas aeruginosa. Put plainly: Antibacterial activity against Pseudomonas aeruginosa ATCC 27853 after 18 hrs by agar dilution method. The conditions noted are these: ATCC 27853, 18 h. In kind it is functional.
The next assay concerns Streptococcus pyogenes. Description: Antibacterial activity against Streptococcus pyogenes ATCC 19615 after 18 hrs by agar dilution method. In kind it is functional. The conditions noted are these: ATCC 19615, 18 h.
The subject of a further assay is Staphylococcus aureus. Description: Antibacterial activity against Staphylococcus aureus ATCC 25923 after 18 hrs by agar dilution method. In kind it is functional. The conditions noted are these: ATCC 25923, 18 h.
The test system of a further assay is Salmonella typhi. Put plainly: Antibacterial activity against Salmonella typhi ATCC 19430 after 18 hrs by agar dilution method. In kind it is functional, Salmonella enterica subsp. enterica serovar Typhi. The conditions noted are these: Salmonella enterica, ATCC 19430, 18 h.

Consider `O=C(NCCCC(=O)N1CCN(c2cc3c(cc2F)c(=O)c(C(=O)O)cn3C2CC2)CC1)c1cnccn1`, for which the MIC is 597 µM (≈ 312 µg/mL) against Pseudomonas aeruginosa, 149 µM (≈ 78 µg/mL) against Streptococcus pyogenes, 0.0746 µM (≈ 0.039 µg/mL) against Staphylococcus aureus and 2390 µM (≈ 1250 µg/mL) in the assay with Salmonella typhi.

For the compound `C[C@H](NC(=O)c1cnccn1)C(=O)N1CCN(c2cc3c(cc2F)c(=O)c(C(=O)O)cn3C2CC2)CC1`, the MIC with Pseudomonas aeruginosa was found to be 2460 µM (≈ 1250 µg/mL); against Streptococcus pyogenes, 2460 µM (≈ 1250 µg/mL); with Staphylococcus aureus it was 2.46 µM (≈ 1.25 µg/mL); in the assay on Salmonella typhi, 2460 µM (≈ 1250 µg/mL).

As to `CCn1cc(C(=O)O)c(=O)c2cc(F)c(N3CCN(C(=O)CNC(=O)c4cnccn4)CC3)cc21`, the minimum inhibitory concentration (MIC) in the assay with Pseudomonas aeruginosa stood at 2490 µM (≈ 1200 µg/mL); in the assay with Streptococcus pyogenes it was 1300 µM (≈ 625 µg/mL); in the assay with Staphylococcus aureus, 0.648 µM (≈ 0.313 µg/mL); with Salmonella typhi, 1300 µM (≈ 625 µg/mL).

Consider `CCn1cc(C(=O)O)c(=O)c2cc(F)c(N3CCN(C(=O)CCNC(=O)c4cnccn4)CC3)cc21`, for which the MIC against Pseudomonas aeruginosa was found to be 2520 µM (≈ 1250 µg/mL); with Streptococcus pyogenes it was 1260 µM (≈ 625 µg/mL); in the assay with Staphylococcus aureus, 0.628 µM (≈ 0.312 µg/mL); in the assay on Salmonella typhi it was 2520 µM (≈ 1250 µg/mL).

`CCn1cc(C(=O)O)c(=O)c2cc(F)c(N3CCN(C(=O)CCCNC(=O)c4cnccn4)CC3)cc21`: the MIC turned out to be 2450 µM (≈ 1250 µg/mL) with Pseudomonas aeruginosa, 2450 µM (≈ 1250 µg/mL) in the assay with Streptococcus pyogenes, 2.45 µM (≈ 1.25 µg/mL) against Staphylococcus aureus and 76.4 µM (≈ 39 µg/mL) in the assay with Salmonella typhi.

For `CCn1cc(C(=O)O)c(=O)c2cc(F)c(N3CCN(C(=O)[C@H](C)NC(=O)c4cnccn4)CC3)cc21`, the minimal inhibitory concentration (MIC) is 2520 µM (≈ 1250 µg/mL) with Pseudomonas aeruginosa, 1260 µM (≈ 625 µg/mL) in the assay on Streptococcus pyogenes, 0.629 µM (≈ 0.312 µg/mL) against Staphylococcus aureus and 2520 µM (≈ 1250 µg/mL) against Salmonella typhi.

As to `O=C(NCC(=O)N1CCN(c2cc3c(cc2F)c(=O)c(C(=O)O)cn3C2CC2)CC1)c1cnccn1`, the MIC was determined as 2530 µM (≈ 1250 µg/mL) in the assay with Pseudomonas aeruginosa, 2530 µM (≈ 1250 µg/mL) in the assay with Streptococcus pyogenes, 2.53 µM (≈ 1.25 µg/mL) with Staphylococcus aureus and 2530 µM (≈ 1250 µg/mL) in the assay on Salmonella typhi.

For `O=C(NCCC(=O)N1CCN(c2cc3c(cc2F)c(=O)c(C(=O)O)cn3C2CC2)CC1)c1cnccn1`, the MIC with Pseudomonas aeruginosa was found to be 2460 µM (≈ 1250 µg/mL); with Streptococcus pyogenes it was 614 µM (≈ 312 µg/mL); in the assay with Staphylococcus aureus, 0.307 µM (≈ 0.156 µg/mL); with Salmonella typhi, 2460 µM (≈ 1250 µg/mL).

With `O=C(O)c1cn(C2CC2)c2cc(N3CCNCC3)c(F)cc2c1=O` [CIPROFLOXACIN], the MIC in the assay with Pseudomonas aeruginosa came to 14.5 µM (≈ 4.8 µg/mL); against Streptococcus pyogenes, 3770 µM (≈ 1250 µg/mL); against Staphylococcus aureus, 3.77 µM (≈ 1.25 µg/mL); against Salmonella typhi, 7.2 µM (≈ 2.39 µg/mL).

Consider `CCn1cc(C(=O)O)c(=O)c2cc(F)c(N3CCNCC3)cc21` [NORFLOXACIN], for which the MIC worked out at 15 µM (≈ 4.79 µg/mL) against Pseudomonas aeruginosa, 1960 µM (≈ 625 µg/mL) in the assay with Streptococcus pyogenes, 3.91 µM (≈ 1.25 µg/mL) in the assay with Staphylococcus aureus and 7.5 µM (≈ 2.4 µg/mL) in the assay on Salmonella typhi.
